Source: ChEMBL document CHEMBL6096719, “Kidney Targeting Smart Antibiotic Discovery: Multimechanism Pleuromutilins for Pyelonephritis Therapy” (J Med Chem, 2025)
Activity calls are given as the source filed them. No cut-off for these calls is given here.

How the values were obtained:
[1] = tested on: Staphylococcus aureus; test: Antibacterial activity against methicillin-resistant Staphylococcus aureus 596 assessed as inhibition of bacterial growth incubated for 24 hrs by broth microdilution method; format: functional
[2] = tested on: Cell membrane; test: Disruption of cell membrane in Escherichia coli ATCC25922 assessed as dissipation of membrane potential at 0.125 to 0.5 ug/ml incubated for 30 mins by DiBAC4(3) probe based fluorescence spectrophotometry; conditions: dose 0.125-0.5 µg/ml
[3] = AUC (0 to 24 hrs) in Sprague-Dawley rat at 10 mg/kg, po; format: ADME, organism-based; conditions: in vivo
[4] = tested on: Salmonella enterica; test: Antibacterial activity against Salmonella enterica ATCC 14028 assessed as inhibition of bacterial growth incubated for 24 hrs by broth microdilution method; format: functional
[5] = Oral bioavailability in Sprague-Dawley rat at 10 mg/kg; format: ADME, organism-based; conditions: in vivo
[6] = tested on: Staphylococcus aureus; test: Antibacterial activity against methicillin-resistant Staphylococcus aureus 575 assessed as inhibition of bacterial growth incubated for 24 hrs by broth microdilution method; format: functional
[7] = tested on: Metamycoplasma hominis; test: Anti-mycoplasma activity against Mycoplasma hominis PG-21 ATCC23114 assessed as inhibition of bacterial growth incubated for 1 to 2 days by broth microdilution method; format: functional; conditions: time 1-2 day
[8] = biological target: Voltage-gated inwardly rectifying potassium channel KCNH2 (Homo sapiens, UniProt Q12809); test: Inhibition of hERG expressed in HEK293 cells assessed as inhibition of tail current measured at holding potential of -80 mV by automated patch clamp analysis; format: toxicity, cell-based
[9] = tested on: Mesomycoplasma hyopneumoniae; test: Anti-mycoplasma activity against Mycoplasma hyopneumoniae MH-LH assessed as inhibition of bacterial growth incubated for 6 to 7 days by broth microdilution method; format: functional; conditions: time 6-7 day
[10] = tested on: Cell membrane; test: Disruption of cell membrane in methicillin-resistant Staphylococcus aureus ATCC33591 assessed as induction of cell death by measuring increase in propidium iodide fluorescence intensity at 0.5 ug/ml incubated for 2 hrs by bright field microscopy; format: subcellular; conditions: dose 0.5 µg/ml
[11] = tested on: Staphylococcus aureus; test: Antibacterial activity against methicillin-resistant Staphylococcus aureus ATCC33591 infected in systemic intraperitoneal infection Kunming mouse model assessed as increase in animal's survival rate at 5 mg/kg, ip treated at 1 hr post-infection and measured on day 7; format: functional; conditions: ATCC33591, 168 h, time 7 day
[12] = tested on: Escherichia coli; test: Antibacterial activity against Escherichia coli ATCC25922 infected in pyelonephritis C57BL/6 mouse model assessed as decrease in kidney swelling at 3 to 10 mg/kg, iv qd for 3 days administered at 2 days post-infection; format: functional, organism-based; conditions: dose 3-10 mg/kg, time 3.0 day
[13] = tested on: Pseudomonas aeruginosa; test: Antibacterial activity against multidrug-resistant Pseudomonas aeruginosa 126 assessed as inhibition of bacterial growth incubated for 24 hrs by broth microdilution method; format: functional
[14] = tested on: Staphylococcus aureus; test: (§1) Antibacterial activity against methicillin-resistant Staphylococcus aureus ATCC33591 infected in systemic intraperitoneal infection Kunming mouse model assessed as decrease in inflammation, neutrophil infiltration and disordered spleen structure at 5 mg/kg, ip treated at 1 hr post-infection and measured after 7 days by Hematoxylin-Eosin staining based analysis; format: functional, organism-based; conditions: time 7.0 day
[15] = Observed MRT (0 to infinity) in Sprague-Dawley rat at 10 mg/kg, po; format: ADME, organism-based; conditions: in vivo
[16] = tested on: Staphylococcus aureus; test: Antibacterial activity against methicillin-resistant Staphylococcus aureus ATCC33591 infected in systemic intraperitoneal infection Kunming mouse model assessed as decrease in bacterial colonies in lungs administered intraperitoneally at 1 hr post-infection and measured after 7 days; format: functional, organism-based; conditions: dose 5-20 mg/kg, route ip, time 7.0 day
[17] = tested on: Escherichia coli; test: Antibacterial activity against Escherichia coli ATCC25922 infected in pyelonephritis C57BL/6 mouse model assessed as restoration of normal renal cortex and pelvis structures at >=5 mg/kg, iv qd for 3 days administered at 2 days post-infection by Hematoxylin-Eosin staining based analysis; format: functional, organism-based; conditions: time 3.0 day
[18] = Toxicity against methicillin-resistant Staphylococcus aureus ATCC33591 infected in systemic intraperitoneal infection Kunming mouse model assessed as mild liver damage at 20 mg/kg, ip treated at 1 hr post-infection and measured after 7 days by Hematoxylin-Eosin staining based analysis; format: organism-based; conditions: in vivo, 168 h, time 7 day
[19] = tested on: Staphylococcus aureus; test: as §1, with “inflammation and” for “inflammation,”, “in liver” for “and disordered spleen structure”; format: functional, organism-based; conditions: time 7.0 day
[20] = Cytotoxicity against human HepG2 cells assessed as reduction in cell viability incubated for 24 hrs by CCK8 assay; format: toxicity, cell-based
[21] = tested on: Staphylococcus aureus; test: Antibacterial activity against methicillin-resistant Staphylococcus aureus 171 assessed as inhibition of bacterial growth incubated for 24 hrs by broth microdilution method; format: functional
[22] = tested on: Mesomycoplasma hyorhinis; test: Anti-mycoplasma activity against Mycoplasma hyorhinis BTS-7 NCTC10130 assessed as inhibition of bacterial growth incubated for 3 to 5 days by broth microdilution method; format: functional; conditions: time 3-5 day
[23] = tested on: Cell membrane; test: Disruption of cell membrane in Escherichia coli ATCC25922 assessed as disrupted, furrowed, crumpled cell envelope at 0.125 to 0.5 ug/ml incubated for 2 hrs by propidium iodide staining based confocal laser scanning microscopy; format: subcellular; conditions: dose 0.125-0.5 µg/ml
[24] = tested on: Cell membrane; test: Disruption of cell membrane in methicillin-resistant Staphylococcus aureus ATCC33591 assessed as decrease in intracellular pH at 0.125 ug/ml incubated for 30 mins by cFDA-SE probe based fluorescence analysis; conditions: dose 0.125 µg/ml
[25] = Observed AUC (0 to infinity) in Sprague-Dawley rat at 5 mg/kg, iv; format: ADME, organism-based; conditions: in vivo
[26] = tested on: Staphylococcus aureus; test: Antibacterial activity against methicillin-resistant Staphylococcus aureus ATCC33591 infected in systemic intraperitoneal infection Kunming mouse model assessed as increase in animal's survival rate at 5 to 20 mg/kg, ip treated at 1 hr post-infection and measured for 7 days; format: functional, organism-based; conditions: dose 5-20 mg/kg, time 7.0 day
[27] = AUC (0 to 24 hrs) in Sprague-Dawley rat at 5 mg/kg, iv; format: ADME, organism-based; conditions: in vivo
[28] = tested on: Staphylococcus aureus; test: Antibacterial activity against methicillin-resistant Staphylococcus aureus ATCC33591 infected in systemic intraperitoneal infection Kunming mouse model assessed as increase in animal's survival rate at 20 mg/kg, ip treated at 1 hr post-infection and measured for 7 days; format: functional, organism-based; conditions: time 7.0 day
[29] = tested on: Staphylococcus aureus; test: Antibacterial activity against methicillin-resistant Staphylococcus aureus ATCC33591 assessed as post-antibiotic effect at 0.25 ug/ml incubated for 1 hr followed by washing and incubation in MHB medium for 10 hrs and later cultured on agar plate for overnight; format: functional; conditions: dose 0.25 µg/ml
[30] = tested on: Staphylococcus aureus; test: Antibiofilm activity against methicillin-resistant Staphylococcus aureus ATCC33591 assessed as eradication of biofilms at 0.5 ug/ml incubated for 4 hrs by field emission scanning electron microscopy; format: functional, organism-based; conditions: dose 0.5 µg/ml
[31] = tested on: Acinetobacter baumannii; test: Antibacterial activity against carbapenem-resistant Acinetobacter baumannii 882 assessed as inhibition of bacterial growth incubated for 24 hrs by broth microdilution method; format: functional
[32] = Tmax in Sprague-Dawley rat at 10 mg/kg, po; format: ADME, organism-based; conditions: in vivo
[33] = tested on: Staphylococcus aureus; test: Antibiofilm activity against methicillin-resistant Staphylococcus aureus ATCC33591 assessed as eradication of preformed biofilms incubated for 24 hrs with preformed biofilms by crystal violet staining based analysis; format: functional, organism-based; conditions: dose 0.125-0.5 µg/ml
[34] = tested on: Staphylococcus aureus; test: Antibiofilm activity against methicillin-resistant Staphylococcus aureus ATCC33591 assessed as disruption of preformed biofilms at 0.5 ug/ml incubated for 24 hrs with preformed biofilms by crystal violet staining based analysis; format: functional; conditions: dose 0.5 µg/ml

Voltage-gated inwardly rectifying potassium channel KCNH2, sequence (Q12809 whole entry): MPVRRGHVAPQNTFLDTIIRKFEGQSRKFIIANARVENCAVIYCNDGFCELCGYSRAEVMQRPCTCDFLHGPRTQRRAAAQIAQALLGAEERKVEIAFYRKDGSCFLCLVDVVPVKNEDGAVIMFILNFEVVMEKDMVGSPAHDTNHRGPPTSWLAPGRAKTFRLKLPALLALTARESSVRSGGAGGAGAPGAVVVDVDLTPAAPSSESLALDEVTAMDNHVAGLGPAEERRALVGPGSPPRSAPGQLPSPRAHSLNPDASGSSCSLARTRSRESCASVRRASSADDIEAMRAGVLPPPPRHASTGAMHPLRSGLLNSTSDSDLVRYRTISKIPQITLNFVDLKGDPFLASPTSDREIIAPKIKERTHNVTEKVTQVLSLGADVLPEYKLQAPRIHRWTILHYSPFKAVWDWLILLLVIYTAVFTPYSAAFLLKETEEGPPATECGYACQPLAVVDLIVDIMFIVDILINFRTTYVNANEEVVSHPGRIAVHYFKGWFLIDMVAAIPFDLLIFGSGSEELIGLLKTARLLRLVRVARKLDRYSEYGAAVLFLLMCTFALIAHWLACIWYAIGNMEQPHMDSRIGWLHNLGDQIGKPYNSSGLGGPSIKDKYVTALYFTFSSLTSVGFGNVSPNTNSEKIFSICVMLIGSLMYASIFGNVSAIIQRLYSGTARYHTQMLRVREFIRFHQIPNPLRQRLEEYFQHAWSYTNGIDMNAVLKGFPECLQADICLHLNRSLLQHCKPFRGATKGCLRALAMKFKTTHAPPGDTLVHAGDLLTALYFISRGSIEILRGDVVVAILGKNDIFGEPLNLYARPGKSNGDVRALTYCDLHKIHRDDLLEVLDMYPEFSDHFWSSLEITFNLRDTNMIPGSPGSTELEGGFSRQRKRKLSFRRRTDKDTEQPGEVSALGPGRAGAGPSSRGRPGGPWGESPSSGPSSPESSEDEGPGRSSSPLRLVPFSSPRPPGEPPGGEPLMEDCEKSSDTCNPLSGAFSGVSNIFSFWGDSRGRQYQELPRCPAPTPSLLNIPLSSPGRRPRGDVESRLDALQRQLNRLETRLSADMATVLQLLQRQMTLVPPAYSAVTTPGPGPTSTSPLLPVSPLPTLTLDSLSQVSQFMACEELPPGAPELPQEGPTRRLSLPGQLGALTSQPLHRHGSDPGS

With `C=C[C@]1(C)C[C@@H](OC(=O)CSc2nc3cc[n+](Cc4ccc(C)cc4)cc3[nH]2)[C@]2(C)[C@H](C)CC[C@]3(CCC(=O)[C@H]32)[C@@H](C)[C@@H]1O.[Br-]` the MIC [1] was 2 µg/mL, the Activity [2] was “Active” and the AUC(0-t) [3] was 14600 ng·h/mL. The MIC [4] was < 1 µg/mL, the bioavailability [5] was 47.9% and the MIC [6] was 1 µg/mL. The MIC [7] was < 0.04 µg/mL, the IC50 [8] was 71.5 µM and the MIC [9] was < 0.04 µg/mL. For the same molecule, the Activity [10] was “Active”, the survival at 5 mg/kg [11] was 80% and the Activity [12] was “Active”. The MIC [13] was 4 µg/mL, the Activity [14] was “Active; Nearly Restoration Of Normal Histology Observed” and the MRT inf [15] was 2.46 h. For the same molecule, the Activity [16] was “Active; Superior Efficacy Compared To Valnemulin Observed”, the Activity [17] was “Active” and the Activity [18] was “Toxic”. The Activity [19] was “Active; Nearly Restoration Of Normal Histology Observed”, the CC50 at 24 h [20] was > 100 µM and the MIC [21] was 4 µg/mL. For the same molecule, the MIC [22] was < 0.04 µg/mL, the Activity [23] was “Active” and the Activity [24] was “Active”. The AUC(0-inf) [25] was 16500 ng·h/mL, the Activity [26] was “Active; Superior Efficacy Over Valnemulin Observed” and the AUC(0-t) [27] was 16200 ng·h/mL. The Activity [28] was “Active; Slight Decrease In Activity Compared To Lower Dose Of Drug Concentration Observed; Diminished Therapeutic Effects To Drug At Higher Concentrations Observed”, the PAE [29] was 1.53 h and the Activity [30] was “Active; Almost Complete Eradication Of Bacteria Observed”. The MIC [31] was 4 µg/mL, the Tmax [32] was 0.5 h and the Activity [33] was “Dose-dependent-effect”. The Activity [34] was 84.31%.
